Laboratory results taken from patent US20230272077A1, “PD-1 SIGNAL INHIBITOR COMBINATION THERAPY” (KYOTO UNIVERSITY, priority 2015, published 2023).

Legend:
MethA = assay: Mouse therapy model, MethA-transplanted BALB/c mice (tumor volume); assay type: in vivo; settings: MethA in BALB/c mice; combined with PD-L1 antibody
Experimental: MC38 (5×10^5) and MethA (5×10^5) cells were intradermally injected on the right flank. MC38 was inoculated into C57BL/6 mice and MethA was inoculated into BALB/c mice. For monotherapy, mice were intraperitoneally injected with 150 μg of PD-L1 mouse antibody (1-111A) (prepared by the laboratory of the present inventors) 5 days after the tumor inoculation. Therapy with PD-L1 antibody alone was repeated three times every 5 days. For combination therapy, administration of PD-L1 antibody and chemical agents started 7 days after tumor injection. Chemical agents were injected at a regular interval of 2 days and PD-L1 antibody at a regular interval of 5 days (shown in FIG. 3b). Tumors were measured on every alternate day, and tumor volumes were calculated using the formula for typical ellipsoid, π×(length×breadth×height/6).
The following chemical reagents were used at the indicated concentrations for combination therapy. AMPK activator: A769662, 6 mg/kg (Abcam); mTOR activator: MHY1485, 3 μg/kg (Sigma-Aldrich); uncoupler: carbonylcyanide-p-trifluoromethoxyphenylhydrazone (FCCP), 1.2 mg/kg (Abcam); uncoupler: 2,4-Dinitrophenol (DNP), 1.7 mg/kg (Aldrich); SIRT1 activator: resveratrol, 0.5 mg/kg (Abcam); ROS scavenger: Mn (III) tetrakis (4-benzoic acid) porphyrin (MnTBAP), 1.25 mg/kg (Calbiochem); ROS generator: tert-butyl hydroperoxide solution (Luperox TBH70X), 200 μL/kg (Sigma-Aldrich); ATP synthase inhibitor: oligomycin, 250 μg/kg (Sigma-Aldrich); paraquat 2 mg/kg (Nakalai Tesque); oltipraz 1.9 mg/kg (Sigma); bezafibrate 1 mg/kg (ChemCruz).
MethA cells (5×10^5) were inoculated into BALB/c mice. After 7 days, anti-PD-L1 antibody (1-111A, 80 μg) and Foxo1 inhibitor (5-amino-7-(cyclohexylamino)-1-ethyl-6-fluoro-4-oxo-1,4-dihydroquinoline-3-carboxylic acid, Calbiochem) (2 mg/kg) were administered intraperitoneally.
Fibrosarcoma MethA (Cell Resource Center for Biomedical Research) cells (5×10^5) were inoculated into BALB/c mice. After 7 days, anti-PD-L1 antibody (1-111A, 60 μg) and Aminoleban (Otsuka Pharmaceutical, 400 μl/mouse) were administered.

[1] = system: AMPK and its associated proteins ACC and SIRT1; assay: Western blotting of DLN CD8+ T cells, AMPK pathway; assay type: in vivo, mouse; settings: CD8+ T cells from mice treated with PD-L1 antibody and reagent
Experimental: FIG. 7. […] Phosphorylation of AMPK, ACC, mTOR and S6K and the expression of SIRT1 and 4EBP1 were analyzed by Western blotting. b) MC38-bearing mice were treated with PD-L1 antibody in combination with AMPK activator (A769662) and/or mTOR activator (MHY1485) according to the same schedule as shown in FIG. 3b.
CD8^+ T cells were isolated using mouse CD8 Microbeads (Miltenyi Biotec). After washing with PBS twice, 2×10^6 cells were solubilized in a lysis buffer containing 30 mM Tris-HCl (pH.7.4), 150 mM NaCl, 10% glycerol, 0.1% SDS, 1% Triton-X-100, 0.05% Na-Doc, 5 mM EDTA (pH.8.0), protease inhibitor mixture (Roche Molecular Biochemicals) and phosphatase inhibitors (Nacalai Tesque). After measurement of protein concentrations by DC protein assay (Bio-Rad), 4 μg of proteins was mounted on 4 to 20% gradient Mini-PROTEAN TGX Gels (Bio-Rad) and electroblotted onto nitrocellulose membranes, which were then incubated in a blocking buffer of TBS containing 1% BSA. Primary antibody incubations were carried out overnight at 4° C. in blocking buffer. After washing, secondary antibody incubations were carried out at room temperature for 40 min in blocking buffer. Blots were developed with enhanced chemiluminescence (Amersham Pharmacia). […]

N#CC(C#N)=NNc1ccc(OC(F)(F)F)cc1 [FCCP, carbonyl cyanide p-trifluoromethoxyphenylhydrazone]
enhancement of antitumor effect of PD-L1 antibody (tumor volume) (MethA): enhanced the antitumor effect of PD-L1 antibody | activation of AMPK and its associated proteins ACC and SIRT1 [1]: activated
